In US20050176759A1, “7-sulfonyl-3-benzazepine derivatives as modulators of the dopamine receptor and their use for the treatment cns disorders” (priority 2001, published 2005):
pKi: −log10 of the molar value.

Biological target: T1, serotonin 5-HT6 receptor (Homo sapiens, UniProt P50406)
T1 construct: expressed in transfected cells
Assay: Binding experiments on cloned 5-HT6 receptors (procedures of WO 98/27081)
Excerpt: Binding Experiments on Cloned […] Receptors
Compounds can be tested following the procedures outlined in WO 98/27081.

T1 sequence (P50406 whole entry): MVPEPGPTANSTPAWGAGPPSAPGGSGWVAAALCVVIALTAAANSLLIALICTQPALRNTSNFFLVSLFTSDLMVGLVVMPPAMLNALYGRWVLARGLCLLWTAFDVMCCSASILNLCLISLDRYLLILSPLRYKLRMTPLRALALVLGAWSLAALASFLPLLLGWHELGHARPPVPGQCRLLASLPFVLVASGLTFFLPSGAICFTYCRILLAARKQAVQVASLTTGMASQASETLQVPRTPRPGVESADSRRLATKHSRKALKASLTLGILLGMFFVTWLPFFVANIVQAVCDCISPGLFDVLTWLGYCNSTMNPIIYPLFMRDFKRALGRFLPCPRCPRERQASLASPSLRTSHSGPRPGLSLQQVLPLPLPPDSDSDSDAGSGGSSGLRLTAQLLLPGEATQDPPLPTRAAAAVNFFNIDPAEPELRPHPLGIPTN

A pKi of 9.00 to 10.00 was found for `O=S(=O)(c1ccc2c(c1)CCNCC2)c1c[nH]c2ccccc12` [Example 43, 7-(3-(1H-indolyl)sulfonyl)-2,3,4,5-tetrahydro-1H-3-benzazepine] in this work.
